“And” between values parts separate entries of the source, which are not always exact repeats. Identical values can stand only once. Like-named read-outs stand apart in the source and are kept apart here.
Columns and labels:
[1] = tested on: human NPM-ALK overexpressing murine BaF3 cells (BaF3-NPM-ALK); experiment: Growth inhibition of BaF3-NPM-ALK cells (Yopro staining); type: cell-based; conditions: Mus musculus, 48 h, two days incubation
From the text: The expression of NPM-ALK is achieved by transfecting the BaF3 cell line with an expression vector pCIneo™ (Promega Corp., Madison Wis., USA ) coding for NPM-ALK and subsequent selection of G418 resistant cells. Non-transfected BaF3 cells depend on IL-3 for cell survival. In contrast NPM-ALK expressing BaF3 cells (named BaF3-NPM-ALK) can proliferate in the absence of IL-3 because they obtain proliferative signal through NPM-ALK kinase. Putative inhibitors of the NPM-ALK kinase therefore abolish the growth signal and result in antiproliferaflve activity. The antiproliferative activity of putative inhibitors of the NPM-ALK kinase can however be overcome by addition of IL-3 which provides growth signals through an NPM-ALK independent mechanism. [for an analogous cell system using FLT3 kinase see E Weisberg et al. Cancer Cell; 1, 433-443 (2002). The inhibitory activity of the compounds of formula I is determined, briefly, as follows: BaF3-NPM-ALK cells (15 000/microtitre plate well) are transferred to 96-well microtitre plates. The test compounds [dissolved in dimethyl sulfoxide (DMSO)] are added in a series of concentrations (dilution series) in such a manner that the final concentration of DMSO is not greater than 1% (v/v). After the addition, the plates are incubated for two days during which the control cultures without test compound are able to undergo two cell-division cycles. The growth of the BaF3-NPM-ALK cells is measured by means of Yopro™ staining (T ldziorek et al. J. Immunol. Methods; 185:249-58 [1995]): 25 μl of lysis buffer consisting of 20 mM sodium citrate, pH 4.0, 26.8 mM sodium chloride, 0.4% NP40, 20 mM EDTA and […] to each well. Cell lysis was completed within 60 min at room temperature and total amount of Yopro bound to DNA was determined by measurement using the Cytofluor II 96-well reader (PerSeptive Biosystems) with the following settings: Excitation (nm) 485/20 and Emission (nm) 530/25.
IC50 values are determined by a computer-aided system using the formula: ICr50=[(ABStest−ABSstart)/(ABScontrol−ABSstart)]×100.

[2] = target: T1, recombinant kinase domain of the ALK (Homo sapiens, UniProt Q9UM73); experiment: Inhibition of ALK tyrosine kinase activity; type: biochemical; conditions: each compound tested twice, once each with two different preparations of ALK
T1 construct: using the recombinant kinase domain of the ALK
Experimental: The inhibition of ALK tyrosine kinase activity is measured using known methods, for example using the recombinant kinase domain of the ALK in analogy to the VEGF-R kinase assay described in J. Wood et al. Cancer Res. 60, 2178-2189 (2000). The table below reports the IC50 values for several compounds of the present invention. Each compound is tested twice, once each with two different preparations of ALK.

[3] = tested on: human KARPAS-299 lympoma cell line; experiment: Antiproliferative action in KARPAS-299 lymphoma cell line; type: cell-based; conditions: KARPAS-299 cell line, same methodology as BaF3-NPM-ALK
[4] = with IL3, read-out: BaF3 NPM-ALK with IL3 IC50
[5] = without IL3, read-out: BaF3 NPM-ALK without IL3 IC50

T1 sequence (Q9UM73 1116-1392 limits assumed): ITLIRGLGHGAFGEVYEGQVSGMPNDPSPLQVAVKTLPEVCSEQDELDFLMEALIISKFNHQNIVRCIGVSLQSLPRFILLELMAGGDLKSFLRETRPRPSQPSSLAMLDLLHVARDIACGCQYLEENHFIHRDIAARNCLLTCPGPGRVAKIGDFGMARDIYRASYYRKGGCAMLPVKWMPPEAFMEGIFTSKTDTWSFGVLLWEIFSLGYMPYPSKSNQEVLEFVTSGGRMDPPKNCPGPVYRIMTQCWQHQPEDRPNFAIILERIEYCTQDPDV

| Compound | IC50 [1, 4] | IC50 [1, 5] | IC50 [2] | IC50 [3] | melting point |
| --- | --- | --- | --- | --- | --- |
| CN(C)S(=O)(=O)c1ccccc1Nc1ccnc(Nc2cccc(OCCn3ccnc3)c2)n1 [Ex. 48] | 1400 nM | 550 nM | 48 nM and 83 nM | 270 nM |  |
| COc1cc(Nc2nccc(Nc3ccccc3S(=O)(=O)N(C)C)n2)cc(OC)c1OC [Ex. 56] | 2700 nM | 410 nM | 180 nM and 86 nM | 150 nM |  |
| CCCNS(=O)(=O)c1ccccc1Nc1ccnc(Nc2cc(OC)c(OC)c(OC)c2)n1 [Ex. 58] | 2600 nM | 560 nM | 46 nM and 90 nM | 330 nM |  |
| COc1cc(Nc2nccc(Nc3cccc(C)c3S(N)(=O)=O)n2)cc(OC)c1OC [Example 3, 2-methyl-6-[2-(3,4,5-Trimethoxy-phenylamino)-pyrimidin-4-ylamino]-benzenesulfonamide] |  |  |  |  | 72 to 75 °C |

From US20070105839A1, “2, 4-Di (phenylamino) pyrimidines useful in the treatment of proliferative disorders” (priority 2003, published 2007)
